For 27 molecules, EC50 results are on record in patent publication US9663473B2 (Actelion Pharmaceuticals Ltd, priority 2013, dated 2017).

SMILES strings stand for the structures. Structures can show the parent of a compound that is named as a salt.

By EC50 is commonly meant the concentration giving half of the maximal effect.

The test has as its target T1, recombinant human ALX receptor (Homo sapiens, UniProt P25090).
T1 construct: expressed in transfected cells; host or cells: HEK293 (HEK293-hALXR-Gα16)
T1 sequence (P25090 1-351): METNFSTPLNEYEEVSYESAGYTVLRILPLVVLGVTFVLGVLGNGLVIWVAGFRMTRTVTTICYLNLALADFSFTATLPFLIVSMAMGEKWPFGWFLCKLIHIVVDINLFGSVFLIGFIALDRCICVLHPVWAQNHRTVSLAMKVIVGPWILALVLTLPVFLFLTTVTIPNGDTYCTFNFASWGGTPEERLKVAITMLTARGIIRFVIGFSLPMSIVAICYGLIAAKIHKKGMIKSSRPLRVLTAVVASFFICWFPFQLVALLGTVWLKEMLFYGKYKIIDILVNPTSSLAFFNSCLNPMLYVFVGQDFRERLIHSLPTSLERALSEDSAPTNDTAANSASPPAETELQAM
The test can be described thus: Intracellular calcium measurements (FLIPR), ALX receptor agonistic activity. The test is classed as cell-based. Conditions: HEK293-hALXR-Gα16 cells, Fluo-4 calcium signal, normalized to WKYMVm 10 nM. How it is done: The ALX receptor agonistic activity of the compounds of formula (I) is determined in accordance with the following experimental method.
Intracellular Calcium Measurements:
Cells expressing recombinant human ALX receptor and the G-protein Gα16 (HEK293-hALXR-Gα16) were grown to 80% confluency in Growing Medium (GM). Cells were detached from culture dishes with a cell dissociation buffer (Invitrogen, 13151-014), and collected by centrifugation at 1′000 rpm at rt for 5 min in Assay Buffer (AB) (equal parts of Hank's BSS (Gibco, 14065-049) and DMEM without Phenol Red (Gibco, 11880-028)). After 60 min incubation at 37° C. under 5% CO2 in AB supplemented with 1 μM Fluo-4 (AM) (Invitrogen, F14202) and 20 mM HEPES (Gibco, 15630-056), the cells were washed and resuspended in AB. They were then seeded onto 384-well FLIPR assay plates (Greiner, 781091) at 50′000 cells in 70 μl per well and sedimented by centrifugation at 1′000 rpm for 1 min. Stock solutions of test compounds were made up at a concentration of 10 mM in DMSO, and serially diluted in AB to concentrations required for activation dose response curves. WKYMVm (Phoenix Peptides) was used as a reference agonist. A FLIPR Tetra instrument (Molecular Devices) was operated according to the manufacturer's standard instructions, adding 4 μl of test compound dissolved at 10 mM in DMSO and diluted prior to the experiment in assay buffer to obtain the desired final concentration. Changes in fluorescence were monitored before and after the addition of test compounds at lex=488 nm and lem=540 nm. Emission peak values above base level after compounds addition were exported after base line subtraction. Values were normalized to high-level control (WKYMVm compound, 10 nM final concentration) after subtraction of the base line value (AB addition).
On the technique in general: A change in cytosolic calcium serves as a functional read-out for many receptors and channels.
Take `COc1ccc(C[C@@H](NC(=O)NCC2CCCC2)c2nc3ccccc3[nH]2)cc1` [Example 92, (R)-1-(1-(1H-Benzo[d]imidazol-2-yl)-2-(4-methoxyphenyl)ethyl)-3-(cyclopentylmethyl)urea]: the half-maximal effective concentration (EC50) was 48 nM.
Under `COc1ccc(C[C@@H](NC(=O)NCCc2ccccc2F)c2nc3ccccc3[nH]2)cc1` [Example 68, (R)-1-(1-(1H-Benzo[d]imidazol-2-yl)-2-(4-methoxyphenyl)ethyl)-3-(2-fluorophenethyl)urea hydrochloride] stands 217 nM.
Consider `COc1ccc(CC(NC(=O)N(C)[C@H]2CC[C@H](O)CC2)c2nc3ccccc3[nH]2)cc1` (relative stereo) [Example 76, 3-(1-(1H-Benzo[d]imidazol-2-yl)-2-(4-methoxyphenyl)ethyl)-1-(trans-4-hydroxycyclohexyl)-1-methylurea], for which the concentration for a half-maximal effect (EC50) was determined as 540 nM.
Under `COc1ccc(CC(NC(=O)NC23CCC(O)(CC2)CC3)c2nc3ccccc3[nH]2)cc1F` (single isomer, unassigned; ent-1) [Example 257, 1-(1-(1H-Benzo[d]imidazol-2-yl)-2-(3-fluoro-4-methoxyphenyl)ethyl)-3-(4-hydroxybicyclo[2.2.2]octan-1-yl)urea (ent-1)] stands 2 nM; under `COc1ccc(C[C@@H](NC(=O)N[C@H](C)C2CCCCC2)c2nc3ccccc3[nH]2)cc1` [Example 383, 1-((R)-1-(1H-Benzo[d]imidazol-2-yl)-2-(4-methoxyphenyl)ethyl)-3-((R)-1-cyclohexylethyl)urea], 1780 nM; under `COc1ccc(C[C@@H](NC(=O)N2CCC3C2CCN3C(=O)OC(C)(C)C)c2nc3ccccc3[nH]2)cc1` (stereo partly drawn) [Example 121, tert-Butyl 4-(((R)-1-(1H-benzo[d]imidazol-2-yl)-2-(4-methoxyphenyl)ethyl)carbamoyl)hexahydropyrrolo[3,2-b]pyrrole-1 (2H)-carboxylate], 704 nM.
Turning to `O=C(NC(Cc1ccc(Br)c(F)c1)c1nc2ccc(F)cc2[nH]1)NC12CCC(O)(CC1)CC2` (single isomer, unassigned; ent-1) [Example 400, 1-(2-(4-bromo-3-fluorophenyl)-1-(6-fluoro-1H-benzo[d]imidazol-2-yl)ethyl)-3-(4-hydroxybicyclo[2.2.2]octan-1-yl)urea (ent-1)], the 50% effective concentration (EC50) was determined as 2.6 nM.
The figure for `COc1ccc(C[C@@H](NC(=O)NCc2ccn(-c3ccccc3)n2)c2nc3ccccc3[nH]2)cc1` [Example 284, (R)-1-(1-(1H-Benzo[d]imidazol-2-yl)-2-(4-methoxyphenyl)ethyl)-3-((1-phenyl-1H-pyrazol-3-yl)methyl)urea] is 353 nM; for `COc1ccc(CC(NC(=O)N[C@@H](C)c2cccc(Cl)c2)c2nc3ccccc3[nH]2)cc1` (stereo partly drawn) [Example 360, 1-(1-(1H-Benzo[d]imidazol-2-yl)-2-(4-methoxyphenyl)ethyl)-3-((S)-1-(3-chlorophenyl)ethyl)urea] it is 561 nM.
The figure for `COc1ccc(C[C@@H](NC(=O)Nc2ccccc2OC)c2nc3ccccc3[nH]2)cc1` [Example 178, (R)-1-(1-(1H-Benzo[d]imidazol-2-yl)-2-(4-methoxyphenyl)ethyl)-3-(2-methoxyphenyl)urea] is 699 nM; for `COc1ccc(CC(NC(=O)N[C@H]2CC[C@H](O)CC2)c2nc3ccc(F)cc3[nH]2)cc1F` (single isomer, unassigned; ent-2) [Example 371, 1-(1-(6-Fluoro-1H-benzo[d]imidazol-2-yl)-2-(3-fluoro-4-methoxyphenyl)ethyl)-3-(trans-4-hydroxycyclohexyl)urea (ent-2)] it is 250 nM; for `COc1ccc(C[C@@H](NC(=O)NC2CCN(CC(F)F)CC2)c2nc3ccccc3[nH]2)cc1` [Example 182, (R)-1-(1-(1H-Benzo[d]imidazol-2-yl)-2-(4-methoxyphenyl)ethyl)-3-(1-(2,2-difluoroethyl)piperidin-4-yl)urea] it is 40 nM.
Take `COc1ccc(C[C@@H](NC(=O)NCCN2CCN(C)CC2)c2nc3ccccc3[nH]2)cc1` [Example 151, (R)-1-(1-(1H-Benzo[d]imidazol-2-yl)-2-(4-methoxyphenyl)ethyl)-3-(2-(4-methylpiperazin-1-yl)ethyl)urea]: the half-maximal effective concentration (EC50) came to 572 nM.
Under `COc1ccc(C[C@@H](NC(=O)NC2Cc3ccccc3C2)c2nc3ccccc3[nH]2)cc1` [Example 26, (R)-1-(1-(1H-Benzo[d]imidazol-2-yl)-2-(4-methoxyphenyl)ethyl)-3-(2,3-dihydro-1H-inden-2-yl)urea] stands 109 nM; under `COc1ccc(CC(NC(=O)NCCc2ccccc2OC)c2nc3ccccc3[nH]2)cc1` (stereo not drawn) [Example 40, 1-(1-(1H-Benzo[d]imidazol-2-yl)-2-(4-methoxyphenyl)ethyl)-3-(2-methoxyphenethyl)urea], 62 nM.
Turning to `COc1ccc(CC(NC(=O)NCc2csc(C)n2)c2nc3ccccc3[nH]2)cc1` (stereo not drawn) [Example 48, 1-(1-(1H-Benzo[d]imidazol-2-yl)-2-(4-methoxyphenyl)ethyl)-3-((2-methylthiazol-4-yl)methyl)urea], the 50% effective concentration (EC50) amounted to 1010 nM.
The figure for `COc1ccc(C[C@@H](NC(=O)NCc2cccc(OC)c2)c2nc3ccccc3[nH]2)cc1` [Example 5, (R)-1-(1-(1H-Benzo[d]imidazol-2-yl)-2-(4-methoxyphenyl)ethyl)-3-(3-methoxybenzyl)urea] is 602 nM; for `COc1ccc(C[C@@H](NC(=O)N[C@@H]2CCCN(C(C)=O)C2)c2nc3ccccc3[nH]2)cc1` [Example 140, 1-((R)-1-(1H-Benzo[d]imidazol-2-yl)-2-(4-methoxyphenyl)ethyl)-3-((R)-1-acetylpiperidin-3-yl)urea] it is 62 nM.
Under `COC(=O)C1CCCC(NC(=O)N[C@H](Cc2ccc(OC)cc2)c2nc3ccccc3[nH]2)C1` (stereo partly drawn) [Example 228, Methyl 3-(3-((R)-1-(1H-benzo[d]imidazol-2-yl)-2-(4-methoxyphenyl)ethyl)ureido)cyclohexanecarboxylate] stands 11 nM; under `COc1ccc(C[C@@H](NC(=O)NC2CCN(Cc3ccccc3)C2)c2nc3ccccc3[nH]2)cc1` (stereo partly drawn) [Example 102, 1-((R)-1-(1H-Benzo[d]imidazol-2-yl)-2-(4-methoxyphenyl)ethyl)-3-(1-benzylpyrrolidin-3-yl)urea], 376 nM.
Regarding `N#Cc1ccc(CC(NC(=O)N[C@H]2CC[C@H](O)CC2)c2nc3ccccc3[nH]2)cc1` (relative stereo) [Example 78, 1-(1-(1H-Benzo[d]imidazol-2-yl)-2-(4-cyanophenyl)ethyl)-3-(trans-4-hydroxycyclohexyl)urea], the EC50 is 693 nM.
Regarding `O=C(NC(Cc1ccc(Br)cc1F)c1nc2ccccc2[nH]1)NC12CCC(O)(CC1)CC2` (stereo not drawn) [Example 254, 1-(1-(1H-Benzo[d]imidazol-2-yl)-2-(4-bromo-2-fluorophenyl)ethyl)-3-(4-hydroxybicyclo[2.2.2]octan-1-yl)urea], the half-maximal effective concentration (EC50) was found to be 21 nM.
Under `COc1ccc(CC(NC(=O)NCCc2ccccn2)c2nc3ccccc3[nH]2)cc1` (stereo not drawn) [Example 8, 1-(1-(1H-Benzo[d]imidazol-2-yl)-2-(4-methoxyphenyl)ethyl)-3-(2-(pyridin-2-yl)ethyl)urea] stands 593 nM; under `COc1cc(F)c(CC(NC(=O)NC23CCC(O)(CC2)CC3)c2nc3ccc(F)cc3[nH]2)c(F)c1` (single isomer, unassigned; ent-2) [Example 373, 1-(2-(2,6-Difluoro-4-methoxyphenyl)-1-(6-fluoro-1H-benzo[d]imidazol-2-yl)ethyl)-3-(4-hydroxybicyclo[2.2.2]octan-1-yl)urea (ent-2)], 107 nM.
The figure for `COc1ccc(C[C@@H](NC(=O)NCCCCO)c2nc3ccccc3[nH]2)cc1` [Example 96, (R)-1-(1-(1H-Benzo[d]imidazol-2-yl)-2-(4-methoxyphenyl)ethyl)-3-(4-hydroxybutyl)urea] is 152 nM.
Under `CC[C@@H](NC(=O)N[C@H](Cc1ccc(OC)cc1)c1nc2ccccc2[nH]1)c1ccccc1` [Example 344, 1-((R)-1-(1H-Benzo[d]imidazol-2-yl)-2-(4-methoxyphenyl)ethyl)-3-((R)-1-phenylpropyl)urea] stands 167 nM; under `COc1ccc(C[C@@H](NC(=O)Nc2cc(C3CC3)nn2C)c2nc3ccccc3[nH]2)cc1` [Example 314, (R)-1-(1-(1H-Benzo[d]imidazol-2-yl)-2-(4-methoxyphenyl)ethyl)-3-(3-cyclopropyl-1-methyl-1H-pyrazol-5-yl)urea], 14 nM.
